In paper PMC11212260, “Next-generation neuropeptide Y receptor small-molecule agonists inhibit mosquito-biting behavior” (Parasites & Vectors, 2024):
Several values for one entry are separate records, joined by “and”; a condition that tells them apart may be missing. Equal entries are not always repeated.

Columns and labels:
[1] = tested on: Aedes aegypti (Orlando strain) females; experiment: Glytube feeding: females feeding to repletion and weight per female (meal palatability); assay type: in vivo; conditions: Supplemental Figure 1 Panel A; compounds of Fig 3; individual replicate values
Method: Groups of 60–150 females were placed in bucket cages with a diameter of 21.6 cm and height of 16.5 cm (VWR) and fasted with access to water for 24 h prior to feeding. Meals were delivered to females via Glytube membrane feeders as described previously. Meals consisted of 1.5 ml sheep blood (HemoStat Laboratories), saline (400 mM NaHCO3 + dih2O), or saline and test compound. Lyophilized compounds were stored at room temperature until use. High-concentration stocks (30 mM in 100% dimethyl sulfoxide [DMSO]) (Sigma-Aldrich) were stored at −20 °C and diluted in saline immediately prior to feeding. Once prepared, meals and glycerol heating elements were warmed in a 42 °C water bath for 15 min to provide warmth to attract mosquitos to feed. ATP (1 mM final concentration) and test compounds (1 μM final concentration) were added prior to placing the meal on top of the mesh on the cage containing female mosquitos. Females were allowed 15–20 min to feed to repletion. Abdominal engorgement was scored by eye and confirmed by weighing females to ensure full feeding (Data S1). […] Females were returned to their original cage with a diH2O wick for 48 h prior to behavioral testing. The lethality of each compound was measured by counting the number of dead females in each cage 24 h post-meal.
Supplementary file 13071_2024_6347_MOESM1_ESM.png: Supplementary Material 1: Figure 1. […] (A) Percent of females feeding to repletion and (B) weight per female after feeding on the indicated meal used for testing in Miniport olfactometer experiments in Figure 3B. (C) Percent of females feeding to repletion and (D) weight per female after feeding on the indicated meal used for testing in live host assays in Figure 4. Data are shown as mean with standard deviation. n = 2–22 replicate cages, 60–150 females/cage. Females were weighed in groups of five to ensure reliable readings. Kruskal–Wallis with Dunn’s multiple comparisons to saline-fed group, ns P > 0.01, * P < 0.01, *** P < 0.0001. (PNG 321 KB)

[2] = tested on: Aedes aegypti (Orlando strain) females; experiment: Host-seeking screening assay (miniport olfactometer); assay type: in vivo; conditions: for Attraction (relative to saline): per-compound value of Fig. 3C; for effect on host-seeking (in words): fed at a dose of 1 μM
Summary of the method: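 Fasted Orlando-strain females fed saline meals (400 mM NaHCO3) with 1 mM ATP and test compound at 1 μM final via warmed membrane feeders; lethality counted 24 h post-meal. At 48 h, attraction to human-scented stocking plus 5% CO2 scored over 5 min, normalized to matched saline-fed controls.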

Ae. aegypti NPYLR7 = Ae. aegypti NPYLR7 (Aedes aegypti, UniProt U5N1H5); set-up: method as in PMID 30735632; conditions: previous work; read-out: EC50 in activating NPYLR7 in vitro; cited from earlier work
Sequence of Ae. aegypti NPYLR7 (U5N1H5 entry or part of it): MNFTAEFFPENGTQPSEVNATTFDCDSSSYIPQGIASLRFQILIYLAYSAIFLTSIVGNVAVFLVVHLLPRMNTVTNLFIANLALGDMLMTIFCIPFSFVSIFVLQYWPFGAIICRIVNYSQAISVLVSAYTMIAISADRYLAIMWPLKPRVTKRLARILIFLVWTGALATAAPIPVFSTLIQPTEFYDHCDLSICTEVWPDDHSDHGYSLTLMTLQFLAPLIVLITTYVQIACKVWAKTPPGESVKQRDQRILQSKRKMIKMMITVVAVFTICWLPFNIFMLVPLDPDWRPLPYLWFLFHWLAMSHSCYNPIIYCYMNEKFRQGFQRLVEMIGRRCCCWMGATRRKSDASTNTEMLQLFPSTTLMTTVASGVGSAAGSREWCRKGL

[3] = tested on: Aedes aegypti (Orlando strain) females; set-up: method as in PMID 30735632; conditions: previous work; cited from earlier work
[4] = fed 1 μM in saline, tested 48 h post-meal

Row | Structure (SMILES) | % feeding (females feeding to repletion) [1] [%] | Attraction (relative to saline) [2, 4] | effect on host-seeking (in words) [2] | Host-seeking relative to saline (test compound % host-seeking/average matched saline % host-seeking) ([2]; fed 1 μM in saline, tested 48 h post-meal, individual replicates, listed as TDI-02631) | EC50 (Ae. aegypti NPYLR7) [µM] | fed dose at which behaviorally active [3] [µM]
1 | Cc1nc(NC(=N)N)nc2cc(N3CCc4ccccc4C3)ccc12 [TDI-014186] | 56.22 | 0.685 | reduced host-seeking behavior | – | – | –
2 | CNc1nc(NC(=N)N)nc2cc(OCc3ccccc3)c(OC)cc12 [TDI-014184] | 76.92 | 0.6 | – | – | – | –
3 | COc1ccc2c(C)nc(NC(=N)N)nc2c1 [TDI-012631, reference compound] | – | 0.99 | not active | 1.06 and 1 | 19.6 | > 30
